In patent publication US20060057669A1, “Inactive transcription factor tif-ia and uses thereof” (priority 2002, published 2006):

Experiments:
TIF-IB/SL1 = test: Co-immunoprecipitation of TIF-IB/SL1 with TIF-IA mutants from HEK293T cells; format: binding, human
Method: (§1) (B) A mutant that mimics phosphorylation of TIF-IA at S199 fails to interact with Pol I and TIF-IB. FLAG-tagged wild-type TIF-IA or the indicated point mutants were overexpressed in HEK293T cells and immunoprecipitated from cell lysates with anti-FLAG antibodies (M2 agarose). Co-precipitated Pol I and TIF-IB/SL1 were visualized on Western blots with anti-RPA116 and anti-TAFI110 antibodies.
(§2) Immunoprecipitations were carried out from human cells overexpressing FLAG-tagged TIF-IA. Cells were lysed in IP buffer, cleared by centrifugation at 10,000×g for 30 min, and the supernatants were incubated for 4 hr at 4° C. with anti-FLAG (M2) agarose (Sigma). To analyze the interaction of TIF-IA with TIF-IB/SL1, the immunoprecipitates were washed with IP buffer and TIF-IB/SL1 was visualized on immunoblots with α-TAFI110 antibodies. To monitor the interaction of TIF-IA with Pol I, the immunoprecipitates were washed with IP buffer containing 600 mM NaCl and Pol I was analyzed on Western blots using antibodies against the second largest subunit of Pol I (RPA116) or PAF67 (Seither et al., J. Biol. Chem. 382 (2001), 1163-1170).
(§3) Given the importance of mTOR-mediated alterations in the phosphorylation pattern on TIF-IA activity, one could predict that either phosphorylation of S199, dephosphorylation of S44 or both regulate the interaction of TIF-IA with the Pol I transcription apparatus. It was therefore examined whether the S→A or S→D point mutant(s) were capable of interacting with Pol I and/or TIF-IB/SL1. For this, TIF-IA was precipitated from cells overexpressing either FLAG-tagged wild-type TIF-IA or the respective S199 and S44 mutant(s), and co-precipitated Pol I and TIF-IB/SL1 were visualized on Western blots.

Pol I transcription [1] = test: Pol I reporter plasmid pMrl930-BH co-transfection in NIH3T3 cells, Northern blot; format: cell-based; conditions: 0.25, 0.5 or 1 μg expression vector
Method: (C) Phosphorylation by RSK is necessary and sufficient for enhancing TIF-IA activity in vivo. NIH3T3 cells were co-transfected with 3 μg pMrl930-BH and lor 2.5 μg of pMT2-HA-CA-RSK2 (lanes 2, 3). Transcripts from the reporter plasmid were monitored on Northern blots. An ethidium bromide stain of cellular 18S and 28S rRNA is shown below.
(C) Transcriptional activity of TIF-IAS44A in vivo. NIH3T3 cells were cotransfected with 2.5 μg Pol I reporter plasmid (pMrl930-BH) and 0.25, 0.5 or 1 μg of pcDNA3.1-TIF-IA (lanes 2-4), TIF-IAS44A (lanes 5-7). Transcripts from the reporter plasmid were monitored on Northern blots. The amount of cellular 18S and 28S rRNA is shown below.
NIH3T3, HEK293T and CLL39 cells were cultured in Dulbecco's modified Eagles medium (DMEM) supplemented with 10% fetal calf serum. Cells were transfected with 5 μg of DNA per 10^6 cells using the calcium phosphate DNA coprecipitation method. Total RNA was isolated after 48 h and analyzed on Northern blots as described (Voit et al., EMBO J. 18 (1999), 1891-1899). Cellular pre-rRNA levels were monitored by hybridization to antisense RNA complementary to the first 155 nucleotides of unprocessed 45S pre-RNA. Transcripts from the rDNA reporter plasmid were monitored by hybridization to a riboprobe that is complementary to pUC sequences inserted between the rDNA promoter and terminator sequences of pMrl930-BH. […]

Pol I transcription [2] = test: In vitro transcription: TIF-IA mutants restoring rDNA transcription of nuclear extract from density-arrested FM3A cells; format: biochemical, murine
Method: (A) Transcriptional activity of TIF-IA mutants in vitro. FLAG-tagged wild-type TIF-IA and the indicated single or double point mutants were overexpressed in HEK293T cells, immunopurified, and 20 and 40 ng were assayed for their capability to restore rDNA transcriptional activity of nuclear extract from density-arrested FM3A cells. The amount and purity of TIF-IA were estimated on silver-stained SDS-polyacrylamide gels and Western blots (data not shown).
(A) Transcriptional activity of TIF-IAS199A and TIF-IAS199D in vitro. FLAG-tagged wild-type TIF-IA and the indicated mutants were immunopurified from HEK293T cells, and 30 and 60 ng were assayed for their capability to restore transcriptional activity of nuclear extract from density-arrested FM3A cells. The amount and purity of TIF-IA were estimated on silver-stained SDS-polyacrylamide gels (data not shown).
(B) Transcriptional activity of TIF-IAS44A in vitro. FLAG-tagged wild-type TIF-IA and the indicated mutant were assayed for their transcriptional activity in vitro.
(§4) Nuclear extracts were prepared from exponentially growing (8×10^5 cells/ml), density-arrested or PD98059-treated (CN Bioscience, Bad Soden, Germany) 40 μM, 0.5 hr) or rapamycin-treated FM3A cells (ATCC, Manassas, USA). 25 μl assays contained 50 ng of template DNA (pMr600/EcoRI), 30 μg nuclear extract proteins and 12 mM Hepes-KOH, [pH8.0], 0.1 mM EDTA, 5 mM MgCl2, 80 mM KCl, 10 mM creatine phosphate, 12% (v/v) glycerol, 0.66 mM each of ATP, GTP and CTP, 0.01 mM UTP and 0.5 μCi [α-^32P]UTP (5000 Ci/mmol). After incubation for 60 min at 30° C., RNA was extracted and analyzed on non-denaturing 5% polyacrylamide gels
TIF-IA was immunopurified from untransfected NIH3T3 cells or from HEK293T cells overexpressing FLAG-tagged TIF-IA. 4×10^6 cells were lysed in 0.8 ml IP buffer (20 mM Tris-HCl [pH 7.4], 200 mM NaCl, 2 mM EDTA, 2 mM EGTA, 1% Triton X-100, 0.5 mM PMSF, 1 μg/ml aprotinin, 5 μg/ml leupeptin and 1 μg/ml pepstatin A), centrifuged at 10,000 g for 30 min, and the supernatants were incubated for 4 hr at 4° C. with either 10 μg anti-TIF-IA antibodies bound to 20 μl protein G-agarose or with anti-FLAG (M2) agarose (Sigma-Aldrich Corp., Missouri, USA). The immunocomplexes were successively washed with buffer AM (20 mM Tris-HCl [pH 8.0], 5 mM MgCl2, 0.1 mM EDTA, 20% glycerol) containing 400 and 100 mM KCl, respectively. The amount and purity of TIF-IA was estimated on silver-stained polyacrylamide gels and similar amounts of bead-bound TIF-IA were used in in vitro transcription assays. GST fusion proteins were expressed in E. coli BL21(DE3) and purified on Glutathione-Sepharose 4B according to the manufacturer's instructions.
To assess the functional relevance of S633 and S649 phosphorylation on transcriptional activity, the respective S→A and S→D single or double point mutants were purified from transfected cells and assayed for their capability to rescue transcription of extracts from density-arrested cells. […] Thus, phosphorylation of TIF-IA at S649 and S633 is required for transcriptional activity.
Phosphorylation of peptide a should inhibit TIF-IA activity, while phosphorylation of peptide b, e.g. S44, should augment TIF-IA activity.

Pol I = test: Co-immunoprecipitation of Pol I with TIF-IA mutants from HEK293T cells; format: binding, human
Method: as §1, §2, §3

HEK293T cells [3] = test: Trypan blue staining; format: cell-based; conditions: data not shown
HEK293T cells [4] = test: Quantitative fluorimetric viability assay with calcein-AM; format: cell-based; conditions: 24, 36, 48 and 60 hr after transfection; 2 μM calcein-AM
Method: (B) Quantitative fluorimetric viability assay with calcein-AM. HEK293T cells were transfected with TIF-IA or the indicated point mutants. […] Viable cells were measured 24, 36, 48 and 60 hr after transfection by incubation with […] calcein-AM. The gradual increase in fluorescence intensity was recorded with a fluorescence multi-well plate reader for 20 min with an excitation wavelength of 485 nm and an emission wavelength of 530 nm. The proliferation rate of mock-transfected cells and cells overexpressing TIF-IA is shown at the left. Plots show the accumulation of calcein fluorescence (arbitrary units) against time. Growth rates calculated from linear regression curves are shown at the right. Values are presented as the mean±SD from three independent experiments performed in duplicates.
Conversion of calcein-AM (calcein acetoxymethyl ester, (CN Bioscience GmbH, Bad Soden, Germany) to calcein was used to measure cell proliferation. 12 hr after transfection, HEK293T cells were seeded to 96-well micro-plates at 1×10^4 cells/well. After 24, 36, 48 and 60 hr, cells were washed with PBS, incubated with 2 μM calcein-AM, and the gradual increase in fluorescence intensity within the cells was recorded by a fluorescence multi-well plate reader (CytoFluor Series 4000/TC, PerSeptive Biosystems, (Applied Biosystems, Forster City, USA) for 20 min in 1 min intervals. Excitation wavelength used for measurements of fluorescence was 485 nm with a bandwidth of 20 nm; emission wavelength was 530 nm with a bandwidth of 25 nm. Under the experimental conditions used, there is a direct correlation between the accumulation ratio of intracellular calcein fluorescence and the number of viable cells. The data from three independent experiments were analyzed by Sigmaplot and expressed as the mean±standard deviation. For statistical analysis, student's t test was used. Differences with a P<0.01 were considered statistically significant.
Given the functional significance of ERK/RSK-directed TIF-IA phosphorylation on Pol I transcription, mutations that enhance or abrogate TIF-IA activity may have a positive or negative effect on cell growth. To test this, HEK293T cells were transfected with cDNAs encoding wild-type or mutant TIF-IA which harbor single or double point mutations at S649 and S633. The expression of TIF-IA was estimated on Western blots and the cellular growth rate was measured by calcein-AM staining. Calcein-AM is a non-fluorescent, hydrophobic compound that is rapidly hydrolyzed by intracellular esterases releasing hydrophilic fluorescent calcein. Thus, cellular calcein fluorescence correlates with the amount of viable cells. […] Cells expressing FLAG-tagged wild-type or mutant TIF-IA were stained with FITC-conjugated anti-FLAG antibodies, identified by FACS and cell numbers were calculated by measuring the ratio of stained cells versus an internal standard. […] Conversely, the number of cells expressing TIF-IAS649A was 33% lower than the control. […] Taken together, the results reveal a striking correlation between phosphorylation of TIF-IA at serine 649, cellular rRNA synthetic activity and cell cycle progression.

HEK293T cells [5] = test: Cell enumeration by dual-parameter flow cytometry; format: cell-based; conditions: 60 hr after transfection
Method: (C) Cell enumeration by flow cytometry. HEK293T cells expressing wild-type TIF-IA or the S649 mutants were harvested 60 hours after transfection, stained with FITC-conjugated anti-FLAG M2 antibodies and analyzed by dual-parameter flow cytometry in a FACScan™ flow cytometer in the presence of CaliBRITE™ calibration beads. 60,000 events were recorded from each sample. The number of cells expressing FLAG-TIF-IA was calculated from the ratio between FITC-positive cells and counted beads.
HEK293T cells were harvested 60 hr after transfection with pcDNA-FLAG-TIF-IA, fixed with 2% paraformaldehyde and permeabilized with 0.1% Triton X-100 in PBS. […] Cell were analyzed with a FACSCan™ flow cytometer in the presence of CaliBRITE™ beads (Becton Dickinson, San Jose, USA). The number of cells expressing FLAG-TIF-IA was calculated from the ratio between FITC-positive cells and counted beads.
Given the functional significance of ERK/RSK-directed TIF-IA phosphorylation on Pol I transcription, mutations that enhance or abrogate TIF-IA activity may have a positive or negative effect on cell growth. […] The expression of TIF-IA was estimated on Western blots and the cellular growth rate was measured by calcein-AM staining. […] Thus, cellular calcein fluorescence correlates with the amount of viable cells. […]

HEK293T cells [6] = test: Relative DNA content of sorted cells by FACS analysis; format: cell-based
Method: HEK293T cells were harvested 60 hr after transfection with pcDNA-FLAG-TIF-IA, fixed with 2% paraformaldehyde and permeabilized with 0.1% Triton X-100 in PBS. Transfected cells were labeled by incubation for 1 hr with 2 μg/ml FITC-conjugated anti-M2 antibodies (Sigma) and subsequently stained with […] propidium iodide (Sigma). Cell were analyzed with a FACSCan™ flow cytometer in the presence of CaliBRITE™ beads (Becton Dickinson, San Jose, USA). The number of cells expressing FLAG-TIF-IA was calculated from the ratio between FITC-positive cells and counted beads.
Given the functional significance of ERK/RSK-directed TIF-IA phosphorylation on Pol I transcription, mutations that enhance or abrogate TIF-IA activity may have a positive or negative effect on cell growth. To test this, HEK293T cells were transfected with cDNAs encoding wild-type or mutant TIF-IA which harbor single or double point mutations at S649 and S633. The expression of TIF-IA was estimated on Western blots and the cellular growth rate was measured by calcein-AM staining. […] Thus, cellular calcein fluorescence correlates with the amount of viable cells. […] Cells expressing FLAG-tagged wild-type or mutant TIF-IA were stained with FITC-conjugated anti-FLAG antibodies, identified by FACS and cell numbers were calculated by measuring the ratio of stained cells versus an internal standard. […]

Pol I transcription [7] = test: In vitro transcription: TIF-IA mutants added to nuclear extract from exponentially growing FM3A cells; format: biochemical, murine; conditions: 20 and 40 ng added to 15 ug nuclear extract
Method: 20 and 40 ng of the indicated TIF-IA mutants were added to 15 ug nuclear extract from exponentially growing FM3A cells and rDNA transcription was assayed.
as §4
Given that phosphorylation of TIF-IA at serine 649 is essential for transcription, excess of TIF-IAS649A should impair Pol I transcription. To test this, we examined the effect of exogenous wild-type and mutant TIF-IA on transcriptional activity of extracts from exponentially growing cells.

Substance: TIF-IAS44A: TIF-IA mutant, S44 mutated to alanine
- interaction with TIF-IB/SL1 (co-precipitated TAFI110) (TIF-IB/SL1): interacted with both Pol I and TIF-IB/SL1
- transcription of the Pol I reporter (Pol I transcription [1]): inactive
- capability to rescue transcription of extracts from density-arrested cells (Pol I transcription [2]; S199 and S44 mutants, 30 and 60 ng): abolishment of transcriptional activity of TIF-IA
- interaction with Pol I (co-precipitated RPA116) (Pol I): interacted with both Pol I and TIF-IB/SL1

Substance: TIF-IAS633AS649D: printed once in b155, probably a misprint of TIF-IAS633AS649A
- cell viability as cause of growth inhibition (HEK293T cells [3]): not due to decreased cell viability

Substance: TIF-IAS649D: TIF-IA point mutant, serine 649 replaced by aspartic acid
- cellular growth rate by calcein-AM staining (HEK293T cells [4]): accelerated cell growth
- number of cells higher compared to cells overexpressing wild-type TIF-IA (HEK293T cells [5]): 43%
- increase of G2/M-phase cells (HEK293T cells [6]): 50%
- effect on transcriptional activity of extracts from exponentially growing cells (Pol I transcription [7]): enhanced Pol I transcription
- capability to rescue transcription of extracts from density-arrested cells (Pol I transcription [2]; S633/S649 mutants, 20 and 40 ng): activated Pol I transcription to a similar or even higher level compared to wild-type TIF-IA
